Test results as given in patent publication US11160862B2, “Nanoemulsion adjuvant for nasal mucosa and preparation method thereof” (NATIONAL HEALTH RESEARCH INSTITUTES, priority 2017, dated 2021).

Tested on: B16-F10/OVA cells
Assay: Lung metastasis after intranasal melanoma vaccination, pathological observation of lung
Type: in vivo
Conditions: C57BL/6 mice inoculated with B16-F10/OVA cells, intranasal 100 μg/dose once a week for 3 weeks, one week after final vaccination
Procedure: 6-week old female C57BL/6 mice were intravascularly inoculated with B16-F10/OVA cells (melanoma cells expressing OVA epitopes, 5×10^5 cells/mouse). One week later, mice were divided into 4 groups (n=6 per group): vaccinated with PBS, ovalbumin (OVA), OVA adjuvanted with 0.1% PELC and OVA adjuvanted with nanoPELC. The mice were intranasally vaccinated with PBS or OVA formulation (100 μg/dose) once a week for 3 weeks. One week after the final vaccination, some of the mice were sacrificed, and the lung was isolated for pathological observation.

Q: For ovalbumin, which “melanoma infection area in the lungs (lung metastasis)” value is on record?
A: not as serious as the PBS group, but it still had a certain area
